Assay results published in ChEMBL document CHEMBL4732213, “Discovery of novel ceramide analogs with favorable pharmacokinetic properties and combination with AKT inhibitor against colon cancer” (Eur J Med Chem, 2021).
The source made the active and inactive calls. The calls are words filed in the database; no cut-off is given here.

How the values were obtained:
[1] = Toxicity in BALB/c nude mouse xenografted with human HT-29 cells assessed as effect on body weight at 100 mg/kg/day, ip measured every 3 day in presence of 50 mg/kg AKT inhibitor MK2206 by electronic caliper method; type: organism-based; details: in vivo, 72 h
[2] = Half life in BALB/c mouse at 50 mg/kg, ip; type: ADME, organism-based; details: in vivo
COLO-678 [3] = experiment: Additive antiproliferative activity against human COLO-678 cells assessed as combination index at 10 uM after 72 hrs in presence of 2.5 uM AKT inhibitor MK2206 by Chou-Talalay method; type: functional
GES1 = experiment: Antiproliferative activity against human GES1 cells measured after 72 hrs by sulforhodamine B assay; type: cell-based; details: GES1, 72 h
Caco-2 = experiment: Antiproliferative activity against human Caco2 cells measured after 72 hrs by sulforhodamine B assay; type: functional, cell-based; details: Caco-2, 72 h
[4] = Antiproliferative activity against human SNU878 cells measured after 72 hrs by sulforhodamine B assay; type: functional, cell-based; details: SNU878, 72 h
[5] = AUC(0 to t) in BALB/c mouse at 50 mg/kg, ip; type: ADME, organism-based; parameters: dose 50 mg/kg; details: in vivo
HT-29 [6] = experiment: Induction of apoptosis in human HT29 cells assessed as inhibition of AKT phosphorylation at 20 uM after 48 hrs in presence of 10 uM MK2206 by Western blotting analysis; type: functional, cell-based
HT-29 [7] = experiment: Down regulation of CDK6 expression in human HT29 cells at 20 uM incubated for 24 hrs in presence of 10 uM AKT inhibitor MK2206 by Western blotting analysis; type: functional, cell-based
[8] = Cmax in BALB/c mouse at 50 mg/kg, ip; type: ADME, organism-based; parameters: route intraperitoneal, dose 50 mg/kg; details: in vivo
HT-29 [9] = experiment: Induction of apoptosis in human HT29 cells at 15 uM after 48 hrs by Annexin-V-FITC/PI staining based flow cytometric analysis; type: functional, cell-based
HT-29 [10] = experiment: Additive antiproliferative activity against human HT29 cells assessed as combination index at 10 uM after 72 hrs in presence of 2.5 uM AKT inhibitor MK2206 by Chou-Talalay method; type: functional
[11] = Toxicity in BALB/c nude mouse xenografted with human HT-29 cells assessed as effect on body weight at 100 mg/kg/day, ip measured every 3 day by electronic caliper method; type: organism-based; details: in vivo, 72 h
[12] = AUC(0 to infinity) in BALB/c mouse at 10 mg/kg, iv; type: ADME, organism-based; parameters: route intravenous, time infinity, dose 10 mg/kg; details: in vivo
HT-29 [13] = experiment: Down regulation of CDK2 expression in human HT29 cells at 20 uM incubated for 24 hrs in presence of 10 uM AKT inhibitor MK2206 by Western blotting analysis; type: functional, cell-based
T84 [14] = experiment: Antiproliferative activity against human T84 cells measured after 72 hrs by sulforhodamine B assay; type: functional, cell-based; details: T84, 72 h
HT-29 [15] = experiment: Induction of ROS generation in human HT29 cells at 20 uM after 16 hrs by flow cytometric analysis; type: functional, cell-based
HT-29 [16] = experiment: Antiproliferative activity against human HT-29 cells measured after 72 hrs by sulforhodamine B assay; type: functional, cell-based; details: HT-29, 72 h
T84 [17] = experiment: Synergistic antiproliferative activity against human T84 cells assessed as combination index at 20 uM after 72 hrs in presence of 10 uM AKT inhibitor MK2206 by Chou-Talalay method; type: functional
HT-29 [18] = experiment: Synergistic antiproliferative activity against human HT29 cells assessed as combination index at 20 uM after 72 hrs in presence of 5 uM AKT inhibitor MK2206 by Chou-Talalay method; type: functional
SW-620 = experiment: Antiproliferative activity against human SW620 cells measured after 72 hrs by sulforhodamine B assay; type: functional, cell-based; details: SW-620, 72 h
HT-29 [19] = experiment: Down regulation of CDK4 expression in human HT29 cells at 20 uM incubated for 24 hrs in presence of 10 uM AKT inhibitor MK2206 by Western blotting analysis; type: functional, cell-based
HT-29 [20] = experiment: Antitumor activity against human HT-29 cells xenografted in BALB/c nude mouse assessed as tumor growth inhibition at 100 mg/kg/day, ip measured every 3 days in presence of 50 mg/kg AKT inhibitor MK2206 by electronic caliper method; type: functional; details: HT-29, ip, 72 h, time 3 day, read-out: TGI
HT-29 [21] = experiment: Down regulation of p-RB expression in human HT29 cells at 20 uM incubated for 24 hrs by Western blotting analysis; type: functional, cell-based
T84 [22] = experiment: Additive antiproliferative activity against human T84 cells assessed as combination index at 10 uM after 72 hrs in presence of 5 uM AKT inhibitor MK2206 by Chou-Talalay method; type: functional
SW480 [23] = experiment: Synergistic antiproliferative activity against human SW480 cells assessed as combination index at 20 uM after 72 hrs in presence of 10 uM AKT inhibitor MK2206 by Chou-Talalay method; type: functional
SW480 [24] = experiment: Additive antiproliferative activity against human SW480 cells assessed as combination index at 40 uM after 72 hrs in presence of 20 uM AKT inhibitor MK2206 by Chou-Talalay method; type: functional
HT-29 [25] = experiment: Antitumor activity against human HT-29 cells xenografted in BALB/c nude mouse assessed as tumor growth inhibition at 100 mg/kg/day, ip measured every 3 days by electronic caliper method; type: functional; details: HT-29, ip, 72 h, time 3 day, read-out: TGI
[26] = AUC(0 to infinity) in BALB/c mouse at 50 mg/kg, ip; type: ADME, organism-based; parameters: time infinity, route intraperitoneal, dose 50 mg/kg; details: in vivo
SW480 [27] = experiment: Antiproliferative activity against human SW480 cells measured after 72 hrs by sulforhodamine B assay; type: functional, cell-based; details: SW480, 72 h
[28] = Tmax in BALB/c mouse at 50 mg/kg, ip; type: ADME, organism-based; details: in vivo
COLO 205 = experiment: Antiproliferative activity against human COLO 205 cells measured after 72 hrs by sulforhodamine B assay; type: functional, cell-based; details: COLO 205, 72 h
HT-29 [29] = experiment: Upregulation of p21 protein expression in human HT29 cells at 20 uM incubated for 24 hrs by Western blotting analysis; type: functional, cell-based
HCT-8 = experiment: Antiproliferative activity against human HCT8 cells measured after 72 hrs by sulforhodamine B assay; type: functional, cell-based; details: HCT-8, 72 h
SW480 [30] = experiment: Additive antiproliferative activity against human SW480 cells assessed as combination index at 10 uM after 72 hrs in presence of 5 uM AKT inhibitor MK2206 by Chou-Talalay method; type: functional
HT-29 [31] = experiment: Downregulation of c-Myc protein expression level in human HT29 cells at 20 uM incubated for 24 hrs in presence of 10 uM AKT inhibitor MK2206 by Western blotting analysis; type: functional, cell-based
HT-29 [32] = experiment: Upregulation of p21 protein expression in human HT29 cells at 20 uM incubated for 24 hrs in presence of 10 uM AKT inhibitor MK2206 by Western blotting analysis; type: functional, cell-based
HT-29 [33] = experiment: Down regulation of cyclin A expression in human HT29 cells at 20 uM incubated for 24 hrs in presence of 10 uM AKT inhibitor MK2206 by Western blotting analysis; type: functional, cell-based
LoVo = experiment: Antiproliferative activity against human Lovo cells measured after 72 hrs by sulforhodamine B assay; type: functional, cell-based
[34] = AUC(0 to t) in BALB/c mouse at 10 mg/kg, iv; type: ADME, organism-based; parameters: dose 10 mg/kg; details: in vivo
COLO-678 [35] = experiment: Additive antiproliferative activity against human COLO-678 cells assessed as combination index at 20 uM after 72 hrs in presence of 5 uM AKT inhibitor MK2206 by Chou-Talalay method; type: functional

For CCCCCCCOc1ccc(CCC(CO)(CO)NC(C)=O)c2ccccc12, the Activity [1] was “Non-Toxic”, the half-life [2] was 3.3 h and the CI (COLO-678 [3]) was 0.87. The IC50 (GES1) was 41.8 µM, the IC50 (Caco-2) was 28 µM and the IC50 [4] was 6.68 µM. For the same compound, the AUC(0-t) [5] was 15600 ng·h/mL, the Activity (HT-29 [6]) was “inactive” and the Activity (HT-29 [7]) was “Active”. For the same compound, the Cmax [8] was 6030 ng/mL, the Activity (HT-29 [9]) was “inactive” and the CI (HT-29 [10]) was 1.05. The Activity [11] was “Non-Toxic”, the AUC(0-inf) [12] was 3060 ng·h/mL and the Activity (HT-29 [13]) was “Active”. The IC50 (T84 [14]) was 14.9 µM, the Activity (HT-29 [15]) was “inactive” and the IC50 (HT-29 [16]) was 17.6 µM. For the same compound, the CI (T84 [17]) was 0.65, the CI (HT-29 [18]) was 0.77 and the IC50 (SW-620) was 29.6 µM. The Activity (HT-29 [19]) was “Active”, the inhibition in vivo at 100 mg/kg/day (HT-29 [20]) was 47.5% and the Activity (HT-29 [21]) was “inactive”. The CI (T84 [22]) was 1.01, the CI (SW480 [23]) was 0.62 and the CI (SW480 [24]) was 0.97. For the same compound, the inhibition in vivo at 100 mg/kg/day (HT-29 [25]) was 25.4%, the AUC(0-inf) [26] was 15700 ng·h/mL and the IC50 (SW480 [27]) was 22.7 µM. For the same compound, the Tmax [28] was 0.75 h, the IC50 (COLO 205) was 18.3 µM and the Activity (HT-29 [29]) was “inactive”. The IC50 (HCT-8) was 21.8 µM, the CI (SW480 [30]) was 0.9 and the Activity (HT-29 [31]) was “Active”. The Activity (HT-29 [32]) was “Active”, the Activity (HT-29 [33]) was “Active” and the IC50 (LoVo) was 26.4 µM. The AUC(0-t) [34] was 3060 ng·h/mL and the CI (COLO-678 [35]) was 0.89.
